Assay type in all cases: cell-based
In data set [1] the target is hERG potassium channel (Homo sapiens, UniProt Q12809, S624A). As to the kind of experiment: whole-cell patch clamp, concentration response.
The target of data set [2] is hERG potassium channel (Homo sapiens, UniProt Q12809, Y652A). Description: whole-cell patch clamp, inhibition at […]. (In general: In patch-clamp work, channel activity is measured electrically.)
Data set [3] addresses hERG potassium channel (Homo sapiens, UniProt Q12809, T623A). As to the kind of experiment: whole-cell patch clamp, inhibition at […].
For data set [4], the target named is hERG potassium channel (Homo sapiens, UniProt Q12809). As to the kind of experiment: whole-cell patch clamp, tail current inhibition.
Data set [5] deals with hERG potassium channel (Homo sapiens, UniProt Q12809, F656A). Description: whole-cell patch clamp, inhibition at […].
The target of data set [6] is hERG potassium channel (Homo sapiens, UniProt Q12809, V625A). As to the kind of experiment: whole-cell patch clamp, inhibition at […].

Broadly, the IC50 is the concentration at which inhibition is half-maximal. Broadly, the inhibition is the change of the read-out against control, counted positive when it falls.

Sequence of hERG potassium channel (Homo sapiens, UniProt Q12809, F656A) (Q12809 whole entry F656A): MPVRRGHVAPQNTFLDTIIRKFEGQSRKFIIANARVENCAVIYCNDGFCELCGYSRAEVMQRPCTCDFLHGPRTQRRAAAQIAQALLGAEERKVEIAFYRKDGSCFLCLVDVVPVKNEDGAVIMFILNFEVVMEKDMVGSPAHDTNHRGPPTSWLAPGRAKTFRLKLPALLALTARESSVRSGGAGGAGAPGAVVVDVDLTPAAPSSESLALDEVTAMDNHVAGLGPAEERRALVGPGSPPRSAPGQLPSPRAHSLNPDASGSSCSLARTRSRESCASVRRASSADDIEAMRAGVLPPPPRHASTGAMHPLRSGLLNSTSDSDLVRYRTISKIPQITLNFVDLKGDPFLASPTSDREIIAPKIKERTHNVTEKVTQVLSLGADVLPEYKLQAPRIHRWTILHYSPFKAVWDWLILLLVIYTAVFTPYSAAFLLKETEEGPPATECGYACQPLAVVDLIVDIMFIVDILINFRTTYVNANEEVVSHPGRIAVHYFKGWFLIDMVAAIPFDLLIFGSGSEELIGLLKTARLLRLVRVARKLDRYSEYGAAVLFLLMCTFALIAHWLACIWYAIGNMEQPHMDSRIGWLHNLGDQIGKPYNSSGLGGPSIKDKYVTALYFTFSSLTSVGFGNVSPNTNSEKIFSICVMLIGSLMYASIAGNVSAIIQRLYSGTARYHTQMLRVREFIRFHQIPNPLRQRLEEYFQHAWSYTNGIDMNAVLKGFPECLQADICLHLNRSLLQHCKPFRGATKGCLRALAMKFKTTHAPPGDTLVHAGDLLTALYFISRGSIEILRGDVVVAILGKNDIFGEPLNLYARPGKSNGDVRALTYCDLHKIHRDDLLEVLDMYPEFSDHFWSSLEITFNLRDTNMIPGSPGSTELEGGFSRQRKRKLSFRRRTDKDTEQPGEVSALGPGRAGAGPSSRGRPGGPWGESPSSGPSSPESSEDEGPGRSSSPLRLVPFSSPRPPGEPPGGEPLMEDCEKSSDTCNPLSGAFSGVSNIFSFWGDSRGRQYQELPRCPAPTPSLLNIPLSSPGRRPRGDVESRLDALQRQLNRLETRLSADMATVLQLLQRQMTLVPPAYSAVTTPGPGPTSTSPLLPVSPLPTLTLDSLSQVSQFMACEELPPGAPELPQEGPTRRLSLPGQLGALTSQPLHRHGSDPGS
Sequence of hERG potassium channel (Homo sapiens, UniProt Q12809, V625A) (Q12809 whole entry V625A): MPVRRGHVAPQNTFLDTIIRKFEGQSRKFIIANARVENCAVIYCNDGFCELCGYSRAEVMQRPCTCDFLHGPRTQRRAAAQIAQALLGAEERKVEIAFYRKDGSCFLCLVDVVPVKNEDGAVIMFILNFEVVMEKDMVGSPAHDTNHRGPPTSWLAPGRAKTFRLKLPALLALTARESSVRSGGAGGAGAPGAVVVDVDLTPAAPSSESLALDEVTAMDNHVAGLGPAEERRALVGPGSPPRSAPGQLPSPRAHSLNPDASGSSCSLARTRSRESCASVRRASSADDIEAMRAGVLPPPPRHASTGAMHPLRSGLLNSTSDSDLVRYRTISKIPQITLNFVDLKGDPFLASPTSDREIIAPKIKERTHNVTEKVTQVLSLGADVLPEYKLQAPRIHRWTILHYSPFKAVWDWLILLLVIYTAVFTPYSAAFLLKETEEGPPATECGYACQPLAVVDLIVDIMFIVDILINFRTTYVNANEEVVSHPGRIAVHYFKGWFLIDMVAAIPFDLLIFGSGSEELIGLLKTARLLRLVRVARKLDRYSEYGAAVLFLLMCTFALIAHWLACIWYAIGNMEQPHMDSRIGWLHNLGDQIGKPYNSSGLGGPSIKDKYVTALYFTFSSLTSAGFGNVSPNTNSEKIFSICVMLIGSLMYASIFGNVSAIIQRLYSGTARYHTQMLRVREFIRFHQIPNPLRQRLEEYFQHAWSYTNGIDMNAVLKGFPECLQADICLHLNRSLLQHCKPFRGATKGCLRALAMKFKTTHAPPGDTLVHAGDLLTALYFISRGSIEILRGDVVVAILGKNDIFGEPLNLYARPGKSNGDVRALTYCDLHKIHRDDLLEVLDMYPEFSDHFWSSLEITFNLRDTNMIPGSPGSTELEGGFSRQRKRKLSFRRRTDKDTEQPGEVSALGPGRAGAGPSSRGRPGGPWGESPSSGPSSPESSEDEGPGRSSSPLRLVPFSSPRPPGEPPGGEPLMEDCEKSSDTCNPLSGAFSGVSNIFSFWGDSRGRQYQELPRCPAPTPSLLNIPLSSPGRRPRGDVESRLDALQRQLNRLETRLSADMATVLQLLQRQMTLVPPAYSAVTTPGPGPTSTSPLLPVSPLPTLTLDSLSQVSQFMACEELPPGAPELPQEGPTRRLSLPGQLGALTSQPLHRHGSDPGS
Sequence of hERG potassium channel (Homo sapiens, UniProt Q12809) (Q12809 whole entry): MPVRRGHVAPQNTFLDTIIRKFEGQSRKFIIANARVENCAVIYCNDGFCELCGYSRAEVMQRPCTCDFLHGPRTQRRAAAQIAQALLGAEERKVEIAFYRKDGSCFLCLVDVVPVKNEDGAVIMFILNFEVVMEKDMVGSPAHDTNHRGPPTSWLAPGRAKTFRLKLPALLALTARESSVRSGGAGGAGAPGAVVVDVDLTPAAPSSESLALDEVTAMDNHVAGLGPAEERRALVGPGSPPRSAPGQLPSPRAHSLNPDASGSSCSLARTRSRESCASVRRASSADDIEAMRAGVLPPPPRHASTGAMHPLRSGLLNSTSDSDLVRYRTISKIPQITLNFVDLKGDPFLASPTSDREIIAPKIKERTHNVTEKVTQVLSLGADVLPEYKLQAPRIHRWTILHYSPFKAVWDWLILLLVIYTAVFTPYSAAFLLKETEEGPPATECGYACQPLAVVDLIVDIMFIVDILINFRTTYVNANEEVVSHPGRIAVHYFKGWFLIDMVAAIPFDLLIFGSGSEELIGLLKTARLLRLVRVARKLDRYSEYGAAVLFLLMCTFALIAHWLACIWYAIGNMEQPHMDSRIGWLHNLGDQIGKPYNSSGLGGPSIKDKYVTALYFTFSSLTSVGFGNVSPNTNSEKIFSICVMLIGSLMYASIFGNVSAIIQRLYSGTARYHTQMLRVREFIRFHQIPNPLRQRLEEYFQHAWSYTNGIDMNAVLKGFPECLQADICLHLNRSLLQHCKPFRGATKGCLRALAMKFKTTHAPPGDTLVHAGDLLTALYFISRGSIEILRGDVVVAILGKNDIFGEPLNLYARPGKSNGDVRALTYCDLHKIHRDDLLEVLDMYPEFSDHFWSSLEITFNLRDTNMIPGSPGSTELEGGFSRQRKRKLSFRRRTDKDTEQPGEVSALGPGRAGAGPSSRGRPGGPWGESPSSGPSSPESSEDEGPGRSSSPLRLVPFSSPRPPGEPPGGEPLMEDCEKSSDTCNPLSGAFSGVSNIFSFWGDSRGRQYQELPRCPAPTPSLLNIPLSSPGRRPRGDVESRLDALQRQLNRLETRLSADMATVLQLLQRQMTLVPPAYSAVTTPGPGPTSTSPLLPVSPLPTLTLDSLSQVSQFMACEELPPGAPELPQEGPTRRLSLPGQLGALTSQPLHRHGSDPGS
Sequence of hERG potassium channel (Homo sapiens, UniProt Q12809, S624A) (Q12809 whole entry S624A): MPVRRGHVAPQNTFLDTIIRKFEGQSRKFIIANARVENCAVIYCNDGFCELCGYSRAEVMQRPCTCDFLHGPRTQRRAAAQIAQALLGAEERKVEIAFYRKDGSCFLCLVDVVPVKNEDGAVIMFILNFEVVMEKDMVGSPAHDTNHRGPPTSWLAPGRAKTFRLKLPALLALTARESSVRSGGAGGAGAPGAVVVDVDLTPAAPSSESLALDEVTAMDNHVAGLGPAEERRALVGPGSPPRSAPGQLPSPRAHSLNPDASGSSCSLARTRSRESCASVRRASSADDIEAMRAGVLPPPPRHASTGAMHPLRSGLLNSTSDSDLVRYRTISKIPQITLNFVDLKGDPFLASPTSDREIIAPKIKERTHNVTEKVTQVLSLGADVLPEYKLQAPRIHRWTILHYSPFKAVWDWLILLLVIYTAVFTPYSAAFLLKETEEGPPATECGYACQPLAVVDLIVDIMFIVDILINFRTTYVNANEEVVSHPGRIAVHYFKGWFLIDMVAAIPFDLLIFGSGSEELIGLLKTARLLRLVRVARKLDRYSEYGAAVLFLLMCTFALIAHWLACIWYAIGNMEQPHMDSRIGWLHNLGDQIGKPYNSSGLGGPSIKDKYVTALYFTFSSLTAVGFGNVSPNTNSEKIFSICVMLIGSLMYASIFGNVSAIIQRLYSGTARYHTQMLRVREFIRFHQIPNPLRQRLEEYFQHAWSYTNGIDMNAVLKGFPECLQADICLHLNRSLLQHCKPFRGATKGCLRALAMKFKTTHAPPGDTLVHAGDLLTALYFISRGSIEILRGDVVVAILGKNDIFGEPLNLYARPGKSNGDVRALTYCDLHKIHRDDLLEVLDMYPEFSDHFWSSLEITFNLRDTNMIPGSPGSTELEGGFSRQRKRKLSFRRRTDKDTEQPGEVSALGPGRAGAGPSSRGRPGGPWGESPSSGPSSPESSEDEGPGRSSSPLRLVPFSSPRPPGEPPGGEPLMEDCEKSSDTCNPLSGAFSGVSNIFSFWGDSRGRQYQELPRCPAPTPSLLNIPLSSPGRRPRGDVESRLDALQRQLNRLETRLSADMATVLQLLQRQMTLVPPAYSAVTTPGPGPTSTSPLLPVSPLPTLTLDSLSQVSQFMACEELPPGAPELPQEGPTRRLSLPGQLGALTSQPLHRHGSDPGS

As for `CC1=C(O)C(=O)C=C2C1=CC=C1[C@@]2(C)CC[C@@]2(C)[C@@H]3C[C@](C)(C(=O)O)CC[C@]3(C)CC[C@]12C` [Celastrol], the IC50 was found to be 4 ± 0.3 µM against hERG potassium channel [1] and 0.83 µM against hERG potassium channel [4]. For the same compound, the inhibition at 1 µM against hERG potassium channel [2] came out at 56.3 ± 1.6%; against hERG potassium channel [3], 36.2 ± 0.4%; against hERG potassium channel [5] it was 34.5 ± 1.5%; at hERG potassium channel [6], 51.6 ± 4.3%.

Source of the values: publication PMC6812191 (Heliyon, 2019).
